This note sets out measurements from patent publication US7459450B2, “Neuropeptide receptor modulators” (Schering Corporation, priority 2004, dated 2008).

The target of one test is T1, Human NPY Y1 receptors (Homo sapiens, UniProt P25929).
T1 construct: expressed in transfected cells; host or cells: CHO cells (membrane protein)
T1 sequence (P25929 1-384): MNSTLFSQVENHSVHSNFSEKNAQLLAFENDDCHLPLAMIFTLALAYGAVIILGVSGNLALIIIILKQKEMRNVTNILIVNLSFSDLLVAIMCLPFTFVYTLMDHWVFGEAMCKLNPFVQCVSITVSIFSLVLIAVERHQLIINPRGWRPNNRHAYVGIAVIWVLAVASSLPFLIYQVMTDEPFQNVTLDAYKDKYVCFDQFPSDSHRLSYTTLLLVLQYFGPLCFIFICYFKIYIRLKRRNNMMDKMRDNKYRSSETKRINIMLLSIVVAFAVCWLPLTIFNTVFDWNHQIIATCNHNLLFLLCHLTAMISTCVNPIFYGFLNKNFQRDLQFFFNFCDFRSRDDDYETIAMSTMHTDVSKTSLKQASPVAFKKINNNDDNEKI
In words: NPY Receptor Binding Assay.
Settings: not given
Regarding `Cc1cccc2sc(NCCc3ccc(/N=C4/N[C@@H](Cc5ccccc5)C(=O)S4)cc3)nc12` [Example 369], the Ki is greater than 10 µM.

Regarding `Cc1cccc2sc(NCCc3ccc(/N=C4/N[C@@H](CC(C)C)C(=O)S4)cc3)nc12` [Example 370], the Ki was greater than 10 µM.

`Cc1cccc2sc(NCCc3ccc(/N=C4/N[C@@H](C(C)C)C(=O)S4)cc3)nc12` [Example 371] came in with a Ki greater than 10 µM.

The compound `Cc1cccc2sc(NCCc3ccc(/N=C4/N[C@@H](CC(=O)O)C(=O)S4)cc3)nc12` [Example 372] yielded a Ki greater than 10 µM.

Take `O=C1S/C(=N\c2ccc(CCNc3nc4ccc(F)cc4s3)cc2)N[C@H]1Cc1ccccc1` [Example 373]: the Ki is greater than 10 µM.

Regarding `CC(C)[C@@H]1N/C(=N/c2ccc(CCNc3nc4ccc(F)cc4s3)cc2)SC1=O` [Example 374], the Ki is greater than 10 µM.

In turn, `O=C1S/C(=N\c2ccc(CCNc3nc4ccc(F)cc4s3)cc2)N2CCC[C@@H]12` [Example 375] had a Ki greater than 10 µM.

The compound `O=C1CN/C(=N\c2cccc(CCNc3nc4ccccc4s3)c2)S1` [Example 376] returned a Ki greater than 10 µM.

On to `O=C1CN/C(=N/c2ccc(CCNc3nc4ccccc4s3)cc2)S1` [Example 377], for which the Ki is greater than 10 µM.

On to `Cc1ccc2nc(NCCc3ccc(/N=C4/N[C@@H](C(C)C)C(=O)S4)cc3)sc2c1` [Example 378], for which the Ki was greater than 10 µM.

Turning to `Cc1ccc2nc(NCCc3ccc(/N=C4\SC(=O)[C@@H]5CCCN45)cc3)sc2c1` [Example 379], the Ki was greater than 10 µM.

As to `Cc1ccc2nc(NCCc3ccc(/N=C4/N[C@@H](CC(=O)O)C(=O)S4)cc3)sc2c1` [Example 380], the Ki was greater than 10 µM.

In the case of `Cc1ccc2nc(NCCc3ccc(/N=C4/N[C@@H](C)C(=O)S4)cc3)sc2c1` [Example 381], the inhibitory constant (Ki) is greater than 10 µM.

With `O=C1S/C(=N\c2ccc(CCNc3nc4ccc(Cl)cc4s3)cc2)N[C@H]1Cc1ccccc1` [Example 382], the Ki was greater than 10 µM.

Consider `CC(C)C[C@@H]1N/C(=N/c2ccc(CCNc3nc4ccc(Cl)cc4s3)cc2)SC1=O` [Example 383], for which the Ki was greater than 10 µM.

For the compound `CC(C)[C@@H]1N/C(=N/c2ccc(CCNc3nc4ccc(Cl)cc4s3)cc2)SC1=O` [Example 384], the Ki is greater than 10 µM.

On to `O=C1SC(=Nc2ccc(CCNc3nc4ccc(Cl)cc4s3)cc2)N2CCCC12` (centres unmarked) [Example 385], for which the Ki was greater than 10 µM.

Consider `C[C@@H]1N/C(=N/c2ccc(CCNc3nc4ccc(Cl)cc4s3)cc2)SC1=O` [Example 386], for which the inhibitory constant (Ki) was greater than 10 µM.

`CS(=O)(=O)c1ccc2nc(NCCc3ccc(/N=C4/N[C@@H](Cc5ccccc5)C(=O)S4)cc3)sc2c1` [Example 387]: the Ki is greater than 10 µM.

`CSCC[C@@H]1N/C(=N/c2ccc(CCNc3nc4ccc(S(C)(=O)=O)cc4s3)cc2)SC1=O` [Example 388] registered a Ki greater than 10 µM.

`CC(C)C[C@@H]1N/C(=N/c2ccc(CCNc3nc4ccc(S(C)(=O)=O)cc4s3)cc2)SC1=O` [Example 389]: the Ki was greater than 10 µM.

`O=C1S/C(=N\c2ccc(CCNc3nc4cc(Cl)c(Cl)cc4s3)cc2)N2CCC[C@@H]12` [Example 390] had a Ki greater than 10 µM.

In turn, `O=C1CN/C(=N/c2ccc(CCNc3nc4cc(Cl)c(Cl)cc4s3)cc2)S1` [Example 391] had a Ki greater than 10 µM.

As for `O=C(O)C[C@@H]1N/C(=N/c2ccc(CCNc3nc4cc(Cl)c(Cl)cc4s3)cc2)SC1=O` [Example 392], the Ki was greater than 10 µM.

`C[C@@H]1N/C(=N/c2ccc(CCNc3nc4cc(Cl)c(Cl)cc4s3)cc2)SC1=O` [Example 393] returned a Ki greater than 10 µM.

Compound `O=C1S/C(=N\c2ccc(CCNc3nc4ccccc4s3)cc2)N[C@H]1Cc1ccccc1` [Example 394] displayed an inhibitory constant (Ki) greater than 10 µM.

`CSCC[C@@H]1N/C(=N/c2ccc(CCNc3nc4ccccc4s3)cc2)SC1=O` [Example 395] came in with a Ki greater than 10 µM.

`CC(C)C[C@@H]1N/C(=N/c2ccc(CCNc3nc4ccccc4s3)cc2)SC1=O` [Example 396] returned an inhibitory constant (Ki) greater than 10 µM.

`CC(C)[C@@H]1N/C(=N/c2ccc(CCNc3nc4ccccc4s3)cc2)SC1=O` [Example 397] came in with a Ki greater than 10 µM.

In the case of `O=C1S/C(=N\c2ccc(CCNc3nc4ccccc4s3)cc2)N2CCC[C@@H]12` [Example 398], the Ki is greater than 10 µM.

Regarding `O=C(O)C[C@@H]1N/C(=N/c2ccc(CCNc3nc4ccccc4s3)cc2)SC1=O` [Example 399], the Ki is greater than 10 µM.

The compound `C[C@@H]1N/C(=N/c2ccc(CCNc3nc4ccccc4s3)cc2)SC1=O` [Example 400] yielded a Ki greater than 10 µM.

`COc1cccc2sc(NCCc3ccc(/N=C4/N[C@@H](Cc5ccccc5)C(=O)S4)cc3)nc12` [Example 401] yielded a Ki greater than 10 µM.

`O=C(O)C[C@@H]1N/C(=N/c2ccc(CCNc3nc4ccc(F)cc4s3)cc2)SC1=O` [Example 402] yielded a Ki greater than 10 µM.

`C[C@@H]1N/C(=N/c2ccc(CCNc3nc4ccc(F)cc4s3)cc2)SC1=O` [Example 403] yielded a Ki greater than 10 µM.

The compound `CC(C)C1NC(=Nc2ccccc2CCNc2nc3ccccc3s2)SC1=O` (centres unmarked) [Example 404] came in with a Ki greater than 10 µM.

Take `O=C1S/C(=N/c2ccccc2CCNc2nc3ccccc3s2)N2CCC[C@@H]12` [Example 405]: the Ki was greater than 10 µM.

`O=C1S/C(=N/c2cccc(CCNc3nc4ccccc4s3)c2)N[C@H]1Cc1ccccc1` [Example 406] gave a Ki greater than 10 µM.

With `CC(C)[C@@H]1N/C(=N\c2cccc(CCNc3nc4ccccc4s3)c2)SC1=O` [Example 407], the inhibition constant (Ki) is greater than 10 µM.

`O=C1S/C(=N/c2cccc(CCNc3nc4ccccc4s3)c2)N2CCC[C@@H]12` [Example 408] came in with a Ki greater than 10 µM.

As to `O=C(O)C[C@@H]1N/C(=N\c2cccc(CCNc3nc4ccccc4s3)c2)SC1=O` [Example 409], the Ki was greater than 10 µM.

The compound `O=C1S/C(=N/c2ccccc2CCNc2nc3ccccc3s2)N[C@H]1Cc1ccccc1` [Example 410] yielded a Ki greater than 10 µM.

Consider `CC(C)C[C@@H]1N/C(=N\c2ccccc2CCNc2nc3ccccc3s2)SC1=O` [Example 411], for which the Ki is greater than 10 µM.

`O=C1CN/C(=N\c2ccccc2CCNc2nc3ccccc3s2)S1` [Example 412] registered a Ki greater than 10 µM.

`O=C(O)C[C@@H]1N/C(=N\c2ccccc2CCNc2nc3ccccc3s2)SC1=O` [Example 413]: the Ki is greater than 10 µM.

Consider `CSCC[C@@H]1N/C(=N/c2ccc(CCNc3nc4ccc([N+](=O)[O-])cc4s3)cc2)SC1=O` [Example 414], for which the Ki was greater than 10 µM.

Still in this test, the particulars now being: Procedure G compounds, rated A/B/C.
The compound `Cc1csc(Nc2ccc(CCNc3nc4ccccc4s3)cc2)n1` [Example 415] displayed a Ki greater than 10 µM.

`c1ccc2sc(NCCc3ccc(Nc4nccs4)cc3)nc2c1` [Example 416]: the Ki is greater than 10 µM.

`Cc1ccc(-c2csc(Nc3ccc(CCNc4nc5ccccc5s4)cc3)n2)cc1` [Example 417] had a Ki greater than 10 µM.

As for `CNC(=O)c1sc(Nc2ccc(CCNc3nc4ccccc4s3)cc2)nc1C` [Example 418], the Ki was greater than 10 µM.

Take `c1ccc(-c2ccc(-c3csc(Nc4ccc(CCNc5nc6ccccc6s5)cc4)n3)cc2)cc1` [Example 419]: the Ki was greater than 10 µM.

For `Fc1ccc(-c2csc(Nc3ccc(CCNc4nc5ccccc5s4)cc3)n2)cc1` [Example 420], the Ki was greater than 10 µM.

Compound `c1ccc(-c2nc(Nc3ccc(CCNc4nc5ccccc5s4)cc3)sc2-c2ccccc2)cc1` [Example 421] registered a Ki greater than 10 µM.

Consider `c1ccc2cc(-c3csc(Nc4ccc(CCNc5nc6ccccc6s5)cc4)n3)ccc2c1` [Example 422], for which the Ki was greater than 10 µM.

`c1ccc(-c2csc(Nc3ccc(CCNc4nc5ccccc5s4)cc3)n2)cc1` [Example 423]: the Ki is greater than 10 µM.

For `c1ccc2sc(NCCc3ccc(Nc4nc(C56C[C@H]7C[C@@H](C5)C[C@@H](C6)C7)cs4)cc3)nc2c1` [Example 424], the Ki is greater than 10 µM.

On to `COc1ccccc1-c1csc(Nc2ccc(CCNc3nc4ccccc4s3)cc2)n1` [Example 425], for which the Ki was greater than 10 µM.

`COc1ccc(-c2csc(Nc3ccc(CCNc4nc5ccccc5s4)cc3)n2)c(OC)c1` [Example 426] registered a Ki greater than 10 µM.

`CCOC(=O)c1sc(Nc2ccc(CCNc3nc4ccccc4s3)cc2)nc1C` [Example 427] returned a Ki greater than 10 µM.

As for `Cc1nc(Nc2ccc(CCNc3nc4ccccc4s3)cc2)sc1C` [Example 428], the Ki was greater than 10 µM.

The compound `CC(=O)c1sc(Nc2ccc(CCNc3nc4ccccc4s3)cc2)nc1C` [Example 429] gave a Ki greater than 10 µM.

`CCc1csc(Nc2ccc(CCNc3nc4ccccc4s3)cc2)n1` [Example 430] showed a Ki greater than 10 µM.

Take `COC(=O)Cc1csc(Nc2ccc(CCNc3nc4ccccc4s3)cc2)n1` [Example 431]: the Ki is greater than 10 µM.

`CCOC(=O)c1sc(Nc2ccc(CCNc3nc4ccccc4s3)cc2)nc1C(F)(F)F` [Example 432] showed a Ki greater than 10 µM.

Turning to `CC(C)(C)c1csc(Nc2ccc(CCNc3nc4ccccc4s3)cc2)n1` [Example 433], the Ki was greater than 10 µM.

`CCOC(=O)CC(C)(C)c1csc(Nc2ccc(CCNc3nc4ccccc4s3)cc2)n1` [Example 434] returned a Ki greater than 10 µM.

`O=C(O)c1csc(Nc2ccc(CCNc3nc4ccccc4s3)cc2)n1` [Example 435] returned an inhibitory constant (Ki) greater than 10 µM.

Consider `COc1ccc(-c2csc(Nc3ccc(CCNc4nc5ccccc5s4)cc3)n2)cc1` [Example 436], for which the Ki was greater than 10 µM.

Take `Cc1nc(Nc2ccc(CCNc3nc4ccccc4s3)cc2)sc1C(=O)N(C)C` [Example 437]: the Ki is greater than 10 µM.

Still in this test, the particulars now being: Procedure H compounds, rated A/B/C.
In the case of `O=C1CSC(Nc2ccc(CCNc3nc4ccccc4s3)cc2)=N1` [Example 439], the Ki was greater than 10 µM.

With `CC(O)CC1SC(Nc2ccc(CCNc3nc4ccccc4s3)cc2)=NC1=O` (centres unmarked) [Example 440], the Ki was greater than 10 µM.

In general, Ki refers to a measure of affinity in units of concentration, obtained from inhibition or displacement. A high value points to a looser hold on the target.
